Laboratory results: ChEMBL document CHEMBL1156592, “4-(1H-indazol-5-yl)-6-phenylpyrimidin-2(1H)-one analogs as potent CDC7 inhibitors” (Bioorg Med Chem Lett, 2008)

Columns and labels:
[1] = test system: A549; assay: Growth inhibition of human A549 cells; type: functional
[2] = Metabolic stability in mouse microsomes assessed as half life; type: ADME, Microsome
[3] = molecular target: Cell division cycle 7-related protein kinase (Homo sapiens, UniProt O00311); assay: Inhibition of CDC7-DBF4
Chain of Cell division cycle 7-related protein kinase (O00311 whole entry): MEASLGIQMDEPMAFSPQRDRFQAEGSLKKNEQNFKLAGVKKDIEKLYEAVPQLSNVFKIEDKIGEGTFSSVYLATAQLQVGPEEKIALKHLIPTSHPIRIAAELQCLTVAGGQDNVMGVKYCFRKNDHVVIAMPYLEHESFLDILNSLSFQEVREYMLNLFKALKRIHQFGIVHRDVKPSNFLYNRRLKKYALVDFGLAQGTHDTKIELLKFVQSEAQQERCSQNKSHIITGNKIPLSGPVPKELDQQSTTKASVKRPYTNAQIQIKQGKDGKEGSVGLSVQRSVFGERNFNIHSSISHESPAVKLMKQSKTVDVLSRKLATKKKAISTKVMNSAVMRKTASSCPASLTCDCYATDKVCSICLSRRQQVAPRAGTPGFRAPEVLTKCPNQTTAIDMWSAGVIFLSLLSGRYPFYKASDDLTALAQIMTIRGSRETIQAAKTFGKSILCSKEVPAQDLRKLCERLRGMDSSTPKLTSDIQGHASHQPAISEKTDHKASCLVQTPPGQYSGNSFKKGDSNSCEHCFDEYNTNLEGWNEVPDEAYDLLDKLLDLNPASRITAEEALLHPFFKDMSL

Row | SMILES | GI50 [1] [nM] | half-life [2] [min] | IC50 [3] [nM]
1 | O=c1nc(-c2ccc(O)cc2)cc(-c2ccccc2)[nH]1 | > 10000 | 4 | 30
2 | O=c1nc(-c2ccc3[nH]ncc3c2)cc(-c2cccc(OCc3ccccc3)c2)[nH]1 | – | – | 6
3 | O=c1nc(-c2ccc3[nH]ncc3c2)cc(-c2ccc(OCc3ccccc3)cc2)[nH]1 | – | – | 350
4 | COc1ccc(-c2cc(-c3ccnc(N(C)C)c3)nc(=O)[nH]2)c(OC)c1 | – | – | 7300
5 | Cc1cc(-c2cc(-c3ccccc3)[nH]c(=O)n2)ccc1O | > 10000 | – | –
6 | CCc1ccc(-c2cc(-c3ccc4n[nH]cc4c3)nc(=O)[nH]2)cc1 | – | – | 100
7 | O=c1nc(-c2ccc3[nH]ncc3c2)cc(-c2ccc(N3CCNCC3)cc2)[nH]1 | – | – | 40
8 | O=c1nc(-c2ccc3[nH]ncc3c2)cc(-c2ccccc2F)[nH]1 | – | – | 10
9 | O=c1nc(-c2ccc3[nH]ncc3c2)cc(-c2cccc(F)c2)[nH]1 | – | – | 150
10 | O=c1nc(-c2ccc3[nH]ncc3c2)cc(-c2cccc(C(F)(F)F)c2)[nH]1 | – | – | 110
11 | O=c1nc(-c2ccc3[nH]ncc3c2)cc(-c2cccc(Cl)c2)[nH]1 | 600 | – | 5
12 | COc1ccc(-c2cc(-c3ccnc(N)c3)nc(=O)[nH]2)c(OC)c1 | – | – | 1000
13 | O=c1nc(-c2ccncc2)cc(-c2cccc(Cl)c2)[nH]1 | – | – | > 13000
